Measurements as given in patent publication US12698262B2, “Potassium salt of 2-[(4S)-8-fluoro-2-[4-(3-methoxyphenyl)piperazin-1-yl]-3-[2-methoxy-5-(trifluoromethyl)phenyl]-4H-quinazolin-4-yl]acetic acid” (AIC246 AG & Co. KG, priority 2020, dated 2026).
Several values for one entry are separate records, joined by “and”; a condition that tells them apart may be missing. Equal values may be shown once.

Test: Solubility test in buffers of different pHs (excess salt, HPLC determination of dissolved letermovir, final pH of mixture)
Format: physicochemical
Details: for Solubility / solubility at 2 h: stirred two hours at room temperature; for Solubility / Final pH / solubility at 2 h: Entries 1-3; for Final pH: final mixture; for solubility at 2 h: thermodynamic from solid
Experimental: Single Crystal X-ray Diffraction (SCXRD): The measured crystal was selected using a Zeiss stereomicroscope using polarized light and prepared under inert conditions immersed in perfluoropolyether as protecting oil for manipulation. Crystal structure determination was carried out using a Rigaku diffractometer equipped with a Pilatus 200K area detector, a Rigaku MicroMax-007HF microfocus rotating anode with MoKα radiation, Confocal Max Flux optics and an Oxford Cryosystems low temperature device Cryostream 700 plus (T=−173° C.). Full-sphere data collection was used with ω and φ scans. Programs used: Data collection and reduction with CrysAlisPro (Rigaku OD, 2015). V/0.60 A and absorption correction with Scale3 Abspack scaling algorithm (CrysAlisPro 1.171.39.12b (Rigaku OD, 2015)). Crystal structure solution was achieved using the computer program SHELXT (Sheldrick, G. M. Acta Cryst. 2015 A71, 3-8.) and visualized using the program SHELXle (C. B. Huebschle, G. M. Sheldrick & B. Dittrich; J. Appl. Cryst., 2011 44, 1281-1284). Missing atoms were subsequently located from difference Fourier synthesis and added to the atom list. Least-squares refinement on F0^2 using all measured intensities was carried out using the program SHELXL 2015 (SHELXL; Sheldrick, G. M. Acta Cryst., 2015 A71, 3-8.). All non-hydrogen atoms were refined including anisotropic displacement parameters. High Performance Liquid Chromatography (HPLC): • Instrument: Thermo Scientific Ultimate 3000 UHPLC • Column: Agilent Zorbax Eclipse XDB C-18, 150×4.6 mm, 5 μm • Flow rate: 1.0 ml/min • Solvent A: 0.1% formic acid in water • Solvent B: 0.1% formic acid in 100% methanol • Stop time: 27 minutes • Injection volume: 10 μl • Column temperature: 35° C. • Wavelength: 260 nm • Autosampler temperature: 10° C.
An excess of letermovir potassium mixed solvate (the salt of Example 1) or letermovir sodium mixed solvate (the salt of Example 4) was added to 2 mL of the corresponding buffer of different pHs. The saturated suspensions were stirred for two hours at room temperature. […] The final pH of the mixtures was also determined.

| Structure (SMILES) | pH of the final solution (aqueous medium, when letermovir concentration is above 100 mg/mL) | concentration levels achieved by dissolving in aqueous medium (aqueous medium, with respect to letermovir free base) | Solubility (buffer pH 2) [mg/mL] | Solubility (buffer pH 5) [mg/mL] | Solubility (buffer pH 6) [mg/mL] | Final pH (initial buffer pH 1) | Final pH (initial buffer pH 2) | Final pH (initial buffer pH 5) | Final pH (initial buffer pH 6) | Final pH (initial buffer pH 7) | Final pH (initial buffer pH 8) | Final pH (initial buffer pH 9) | solubility at 2 h (pH 2, simulated gastric fluid, buffer pH 2) [mg/mL] | solubility at 2 h (pH 5, aqueous buffer, buffer pH 5) [mg/mL] | solubility at 2 h (pH 6, aqueous buffer, buffer pH 6) [mg/mL] | solubility at 2 h (pH 8, aqueous buffer, buffer pH 8) [mg/mL] | solubility at 2 h (pH 9, aqueous buffer, buffer pH 9) [mg/mL] |
| --- | --- | --- | --- | --- | --- | --- | --- | --- | --- | --- | --- | --- | --- | --- | --- | --- | --- |
| COc1cccc(N2CCN(C3=Nc4c(F)cccc4[C@H](CC(=O)[O-])N3c3cc(C(F)(F)F)ccc3OC)CC2)c1.[K+] [crystalline potassium salt of letermovir, potassium 2-[(4S)-8-fluoro-2-[4-(3-methoxyphenyl)piperazin-1-yl]-3-[2-methoxy-5-(trifluoromethyl)phenyl]-4H-quinazolin-4-yl]acetate] | 7.4-7.8 and 7-8 | above 100 mg/mL | – | – | – | – | – | – | – | – | – | – | – | – | – | – | – |
| COc1cccc(N2CCN(C3=Nc4c(F)cccc4[C@H](CC(=O)[O-])N3c3cc(C(F)(F)F)ccc3OC)CC2)c1.[K+] (mixture of isomers) [potassium salt mixed solvate, potassium 2-[(4S)-8-fluoro-2-[4-(3-methoxyphenyl)piperazin-1-yl]-3-[2-methoxy-5-(trifluoromethyl)phenyl]-4H-quinazolin-4-yl]acetate] | – | – | 10.63 | 16.50 | 1.17 | 4.5 and 6.6 | 7.2 and 7.3 | 7.1 and 7.2 | 6.3 | 7.1 and 7.0 and 7.4 | 7.7 and 7.6 | 7.7 | 14.4 | 14.3 | 1.27 | > 100 | > 100 |
